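1) Cells in 96-well plates. 2) Compound, 48 h, 5 concentrations. 3) Linear interpolation between surrounding doses. 4) Unreached endpoint = highest concentration. GI50 = concentration required for 50% inhibition of growth.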 The source made the active and inactive calls. Rule as the data show it: active = GI50 up to about 1.1 µM and inactive = higher.
How the values were obtained:
Test in all cases: growth of human tumour cells (NCI), 48 h
[1] = system: COLO 205
[2] = system: UACC-257
[3] = system: HOP-92
[4] = system: NCI-H23
[5] = system: M14
[6] = system: UO-31
[7] = system: Hs-578T
[8] = system: NCI/ADR-RES
[9] = system: NCI-H460
[10] = system: OVCAR-8
[11] = system: DU-145
[12] = system: SNB-19
[13] = system: SW-620
[14] = system: IGROV-1
[15] = system: RXF 393
[16] = system: MDA-N
[17] = system: EKVX
[18] = system: SK-MEL-28
[19] = system: HOP-62
[20] = system: TK-10

Measured: GI50

CC(=O)OC1CCn2c1nc1cc([N+](=O)[O-])c(C)cc12 (centres undefined)
inactive: [1] > 100 µM | [2] > 100 µM | [3] > 100 µM | [4] > 100 µM | [5] > 100 µM | [6] > 100 µM | [7] > 100 µM | [8] > 100 µM | [9] > 100 µM | [10] > 100 µM | [11] > 100 µM | [12] > 100 µM | [13] > 100 µM | [14] > 100 µM | [15] > 100 µM | [16] > 100 µM | [17] > 100 µM | [18] > 100 µM

Cc1cn(C2CC(OC(c3ccccc3)(c3ccccc3)c3ccccc3)C(COC(c3ccccc3)(c3ccccc3)c3ccccc3)O2)c(=O)[nH]c1=O (centres undefined)
inactive: [1] > 100 µM | [2] > 100 µM | [3] 21.1 µM | [5] > 100 µM | [19] > 100 µM | [6] 45.6 µM | [7] 38.1 µM | [8] > 100 µM | [9] 57.8 µM | [10] > 100 µM | [11] > 100 µM | [12] 11.7 µM | [13] 90.4 µM | [20] 42.5 µM | [14] > 100 µM | [15] 30 µM | [16] 31.8 µM | [17] 45.6 µM | [18] 36.8 µM

CC1CC(=O)N(N(C)C)C2(C#N)C(=O)N=C(N)C12C#N (centres undefined)
inactive: [1] 38.7 µM | [2] > 100 µM | [3] > 100 µM | [4] > 100 µM | [5] > 100 µM | [19] > 100 µM | [6] > 100 µM | [7] > 100 µM | [8] > 100 µM | [10] > 100 µM | [11] > 100 µM | [12] > 100 µM | [13] 35.4 µM | [20] > 100 µM | [14] > 100 µM | [15] > 100 µM | [16] > 100 µM | [17] > 100 µM

CC(C)=Cc1cc2c(cc1O)CCC1C2CC[C@@]2(C)C1CC[C@@H]2O (some centres undefined)
inactive: [1] 18.4 µM | [2] 14.9 µM | [3] 21.3 µM | [4] 15.8 µM | [5] 10.4 µM | [6] 13.3 µM | [7] 18.5 µM | [8] 7.66 µM | [9] 12 µM | [10] 17.9 µM | [11] 14.3 µM | [12] 11.6 µM | [13] 8.53 µM | [20] 3.16 µM | [14] 12.8 µM | [15] 6.01 µM | [16] 2.44 µM | [17] 15.6 µM | [18] 15.5 µM

O=C1c2ccccc2C(=O)N1CC(CN1C(=O)c2ccccc2C1=O)(C(=O)OCc1ccccc1)C(=O)OCc1ccccc1
inactive: [1] > 100 µM | [3] > 100 µM | [4] > 100 µM | [5] > 100 µM | [19] > 100 µM | [6] > 100 µM | [7] > 100 µM | [8] > 100 µM | [9] > 100 µM | [10] > 100 µM | [11] > 100 µM | [12] > 100 µM | [14] > 100 µM | [15] 14.4 µM | [16] > 100 µM | [18] > 100 µM

Cc1nc2c(nc1C)-c1c(c3c(n1Cc1ccccc1)C(=O)CCC3)C(=O)C2=O
inactive: [1] 30.5 µM | [2] 6.37 µM | [3] 3.4 µM | [4] 3.69 µM | [5] 4.42 µM | [19] 8.79 µM | [6] 2.08 µM | [7] 4.2 µM | [8] 3.84 µM | [9] 4.62 µM | [10] 3.09 µM | [11] 5.08 µM | [12] 7.96 µM | [13] 3.07 µM | [20] 18.8 µM | [14] 2.58 µM | [16] 2.21 µM | [17] 5.69 µM | [18] 2.02 µM

COC(=O)/C(=C\Nc1cccc(C)n1)S(=O)(=O)c1ccc(C)cc1
inactive: [1] 22.2 µM | [2] 69.2 µM | [3] 54.5 µM | [4] 40.6 µM | [5] 45.7 µM | [19] > 100 µM | [6] 36.4 µM | [7] 38.9 µM | [8] 76.4 µM | [9] 61.7 µM | [10] 77.6 µM | [11] > 100 µM | [12] 39.2 µM | [13] 27.1 µM | [20] 96.2 µM | [14] > 100 µM | [15] 70.8 µM | [16] 30.1 µM | [18] 67 µM

COC(=O)c1c(C#C[Si](C)(C)C)c(C#C[Si](C)(C)C)c(C#C[Si](C)(C)C)c(C#C[Si](C)(C)C)c1C(=O)OC
inactive: [1] > 100 µM | [2] > 100 µM | [3] > 100 µM | [4] > 100 µM | [5] > 100 µM | [6] > 100 µM | [7] > 100 µM | [8] > 100 µM | [9] > 100 µM | [10] > 100 µM | [11] > 100 µM | [12] > 100 µM | [13] > 100 µM | [20] > 100 µM | [14] > 100 µM | [15] > 100 µM | [16] > 100 µM | [17] > 100 µM | [18] > 100 µM

C[N+]1(C)CC=C(N2CCOCC2)CC1
inactive: [1] > 10 µM | [2] > 10 µM | [4] > 10 µM | [5] > 10 µM | [19] > 10 µM | [6] > 10 µM | [7] > 10 µM | [8] > 10 µM | [9] > 10 µM | [10] > 10 µM | [11] > 10 µM | [12] > 10 µM | [13] > 10 µM | [20] > 10 µM | [14] > 10 µM | [15] > 10 µM | [16] > 10 µM | [17] > 10 µM | [18] > 10 µM

CCn1c2c(c3ccccc3c1=O)C(=O)c1ccccc1-2
inactive: [1] > 100 µM | [2] > 100 µM | [3] > 100 µM | [4] > 100 µM | [5] > 100 µM | [19] > 100 µM | [6] > 100 µM | [7] 74.5 µM | [8] > 100 µM | [10] > 100 µM | [11] > 100 µM | [12] > 100 µM | [13] > 100 µM | [20] > 100 µM | [14] > 100 µM | [16] > 100 µM | [17] > 100 µM | [18] > 100 µM

Cn1ccnc1SC(F)(F)c1nc2ccccc2o1
inactive: [1] > 100 µM | [2] > 100 µM | [3] > 100 µM | [4] > 100 µM | [5] > 100 µM | [19] > 100 µM | [6] > 100 µM | [7] > 100 µM | [8] > 100 µM | [9] > 100 µM | [10] > 100 µM | [11] > 100 µM | [13] > 100 µM | [20] > 100 µM | [14] > 100 µM | [15] > 100 µM | [16] > 100 µM | [18] > 100 µM

COc1cc(S(=O)(=O)Nc2ccc(-c3csc(N4C(=O)C(Cl)C4c4cccs4)n3)cc2)ccc1Cl (centres undefined)
inactive: [1] 31.7 µM | [2] 28.1 µM | [3] 19.7 µM | [4] 29.4 µM | [5] > 100 µM | [19] > 100 µM | [6] 84.3 µM | [7] > 100 µM | [8] > 100 µM | [9] 71.6 µM | [10] 70.6 µM | [11] > 100 µM | [12] > 100 µM | [13] 43.4 µM | [14] 18.2 µM | [15] 23.5 µM | [16] 65 µM | [17] 7.55 µM | [18] > 100 µM

N=C1N(/N=C/c2ccccn2)/C(=N\c2ccccc2)C(=S)N1c1ccccc1
inactive: [1] 1.42 µM | [2] 9.27 µM | [3] 10.8 µM | [4] 6.07 µM | [19] 10.2 µM | [6] 4.37 µM | [7] 11.5 µM | [8] 2.83 µM | [9] 4.15 µM | [10] 3.6 µM | [11] 3.31 µM | [12] 15.4 µM | [13] 3.47 µM | [20] 11 µM | [14] 5.05 µM | [15] 3.15 µM | [16] 3.56 µM | [17] 3.41 µM | [18] 11 µM

COc1c(C(=O)NCCN(CCNC(=O)c2cccc(-c3cccc(C(=O)N(C)C)c3OC)c2OC)CCNC(=O)c2cccc(-c3cccc(C(=O)N(C)C)c3OC)c2OC)cccc1-c1cccc(C(=O)N(C)C)c1OC
inactive: [1] 22.1 µM | [2] 29 µM | [3] 14.4 µM | [4] 43.2 µM | [5] > 100 µM | [19] 97.7 µM | [6] > 100 µM | [7] 32.4 µM | [8] > 100 µM | [9] 94.4 µM | [10] > 100 µM | [11] 32.7 µM | [12] 56.5 µM | [13] 38.1 µM | [14] 36.1 µM | [15] 26.5 µM | [16] 17.8 µM | [17] 47.6 µM | [18] 19.5 µM

From ChEMBL document CHEMBL1201862, “PubChem BioAssay data set” (2004)
